Experimental data: the NIST ThermoML archive (doi:10.1021/je050389b)

Assay: xn = mol fraction of the nth substance listed
Conditions: Liquid; for viscosity: 100.5 kPa; for mass density: 101 kPa

CCOC(=O)Cc1ccccc1 [ethyl phenylacetate] + CCO
Conditions	mass density, 288.15 K [kg/m3]	mass density, 298.15 K [kg/m3]	mass density, 308.15 K [kg/m3]	mass density, 318.15 K [kg/m3]	viscosity, 288.15 K [mPa·s]	viscosity, 298.15 K [mPa·s]	viscosity, 308.15 K [mPa·s]	viscosity, 318.15 K [mPa·s]
x1 = 0.05	825.34	816.54	807.65	798.61	1.366	1.127	0.947	0.798
x1 = 0.1	852	843.05	834	824.82	1.393	1.151	0.967	0.823
x1 = 0.15	874.72	865.65	856.49	847.17	1.447	1.195	1.003	0.855
x1 = 0.2	894.42	885.25	875.99	866.6	1.513	1.244	1.044	0.891
x1 = 0.25	911.6	902.37	893.03	883.57	1.584	1.298	1.089	0.93
x1 = 0.3	926.72	917.42	908.03	898.52	1.663	1.357	1.138	0.971
x1 = 0.35	940.14	930.79	921.36	911.82	1.742	1.418	1.188	1.012
x1 = 0.4	952.17	942.79	933.33	923.77	1.822	1.479	1.239	1.055
x1 = 0.45	963.02	953.61	944.13	934.56	1.904	1.543	1.292	1.099
x1 = 0.5	972.79	963.35	953.86	944.28	1.989	1.61	1.344	1.145
x1 = 0.55	981.67	972.24	962.73	953.16	2.076	1.677	1.399	1.191
x1 = 0.6	989.81	980.37	970.86	961.29	2.164	1.747	1.455	1.238
x1 = 0.65	997.27	987.81	978.31	968.75	2.255	1.821	1.513	1.286
x1 = 0.7	1004.13	994.68	985.19	975.65	2.348	1.895	1.571	1.336
x1 = 0.75	1010.49	1001.03	991.56	982.04	2.446	1.974	1.635	1.387
x1 = 0.8	1016.36	1006.93	997.48	987.98	2.555	2.053	1.702	1.441
x1 = 0.85	1021.84	1012.41	1002.97	993.53	2.672	2.14	1.772	1.498
x1 = 0.9	1026.95	1017.55	1008.14	998.73	2.79	2.23	1.847	1.558
x1 = 0.95	1031.75	1022.36	1012.99	1003.61	2.919	2.33	1.914	1.605
x1 = 1	1036.35	1026.96	1017.6	1008.26	3.002	2.384	1.948	1.624
